As usually defined, the pIC50 is the IC50 on a negative log10 scale, so that one unit is a factor of ten.

Test [1] has as its target T1, GCN2 (Homo sapiens, UniProt Q9P2K8). Briefly: GCN2 enzyme assay (TR-FRET Lanthascreen, phosphorylation of GFP-eIF2alpha). Type of test: biochemical. The following applies: 10 μM ATP, 80 nM GFP-eIF2alpha, 30 nM GCN2, room temperature. An excerpt: GCN2: Assay principle & conditions
This assay can quantificate the activity of the serin kinase GCN2 (general control non-derepressible-2).
This kinase is involved in the stress metabolism of cells. It is activated upon starvation (amino acid depletion). Its natural substrate is eIF2a (eukaryotic initiation factor 2 alpha subunit), a translation factor, which gets activated (phosphorylated) by GCN2 in case of an amino acid bottleneck in the cells. This in turn leads to a halt of the protein synthesis. Inhibition of GCN2 results in stopping this mechanism: The cell can not stop protein production upon “starvation” stress.
The assay is run in two steps: the enzymatic reaction and the detection step. In the first step GCN2 is incubated with 10 μM ATP and 80 nM of the GFP-labelled substrate eIF2alpha at room temperature.
The enzymatic reaction is stopped by addition of EDTA. The amount of phosphorylated eIF2alpha is determined by TR-FRET (Lanthascreen): A complex is formed consisting of antibody and GFP labelled phospho-eIF2a, which allows a FRET upon exitation at 340 nm.
The GCN2-activity is directly proportional to the ratio of fluorescence units at the emission wavelengthh 520 nm (phosphopeptide-sensitive wavelength=emission of GFP) to the units at 495 nm (reference wavelength=emission of Terbium-chelate).
Final Concentrations in the Enzymatic Reaction
(TR-FRET usually uses a lanthanide donor and a delayed reading to cut background.)
Target sequence in this assay (Q9P2K8 whole entry, species assumed): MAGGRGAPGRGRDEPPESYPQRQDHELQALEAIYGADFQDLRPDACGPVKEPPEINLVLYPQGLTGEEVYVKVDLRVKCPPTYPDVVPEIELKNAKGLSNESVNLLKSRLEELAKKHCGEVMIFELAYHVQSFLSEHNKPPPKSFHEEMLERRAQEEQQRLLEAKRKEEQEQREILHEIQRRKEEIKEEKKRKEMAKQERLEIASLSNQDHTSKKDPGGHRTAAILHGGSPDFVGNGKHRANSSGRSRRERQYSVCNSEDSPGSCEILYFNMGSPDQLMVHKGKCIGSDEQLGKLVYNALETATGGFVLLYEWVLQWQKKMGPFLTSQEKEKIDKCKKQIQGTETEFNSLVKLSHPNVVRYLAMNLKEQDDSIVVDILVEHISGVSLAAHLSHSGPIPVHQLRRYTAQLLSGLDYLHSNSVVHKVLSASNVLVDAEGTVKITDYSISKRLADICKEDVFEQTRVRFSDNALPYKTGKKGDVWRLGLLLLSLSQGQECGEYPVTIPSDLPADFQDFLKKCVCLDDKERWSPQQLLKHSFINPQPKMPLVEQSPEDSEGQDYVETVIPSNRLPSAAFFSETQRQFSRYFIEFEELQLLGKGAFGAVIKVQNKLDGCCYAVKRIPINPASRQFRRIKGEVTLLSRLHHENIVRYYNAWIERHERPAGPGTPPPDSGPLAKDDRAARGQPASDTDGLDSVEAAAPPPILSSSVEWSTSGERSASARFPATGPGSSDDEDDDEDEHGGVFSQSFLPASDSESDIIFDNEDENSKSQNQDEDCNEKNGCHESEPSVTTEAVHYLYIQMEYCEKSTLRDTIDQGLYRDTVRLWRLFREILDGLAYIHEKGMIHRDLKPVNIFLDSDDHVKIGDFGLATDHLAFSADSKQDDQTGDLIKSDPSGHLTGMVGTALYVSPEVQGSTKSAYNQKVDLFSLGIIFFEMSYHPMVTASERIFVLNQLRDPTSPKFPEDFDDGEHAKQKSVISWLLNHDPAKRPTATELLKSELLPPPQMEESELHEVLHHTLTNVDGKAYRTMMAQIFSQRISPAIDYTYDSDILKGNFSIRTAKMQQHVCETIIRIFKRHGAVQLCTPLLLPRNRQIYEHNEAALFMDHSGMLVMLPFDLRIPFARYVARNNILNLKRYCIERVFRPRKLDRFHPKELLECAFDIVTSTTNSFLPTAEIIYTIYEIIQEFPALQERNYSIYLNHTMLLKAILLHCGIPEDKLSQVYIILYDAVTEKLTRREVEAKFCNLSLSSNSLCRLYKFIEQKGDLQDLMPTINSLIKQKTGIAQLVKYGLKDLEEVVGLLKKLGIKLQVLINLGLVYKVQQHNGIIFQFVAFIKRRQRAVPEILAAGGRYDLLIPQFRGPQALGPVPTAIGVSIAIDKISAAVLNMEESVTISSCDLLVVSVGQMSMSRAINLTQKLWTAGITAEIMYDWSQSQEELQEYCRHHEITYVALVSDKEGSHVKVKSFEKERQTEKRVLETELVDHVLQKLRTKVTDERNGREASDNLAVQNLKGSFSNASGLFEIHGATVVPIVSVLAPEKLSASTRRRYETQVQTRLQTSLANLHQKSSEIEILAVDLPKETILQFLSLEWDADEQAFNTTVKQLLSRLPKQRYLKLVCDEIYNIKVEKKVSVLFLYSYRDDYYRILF

For test [2], the target named is T1, GCN2. Briefly: Cellular assay for GCN2 activity (phospho-eIF2alpha immunocytochemistry, tryptophanol-stimulated U2OS cells). The test is classed as cell-based. More on the design: endogenous in cells; host or cells: U2OS. Conditions: 2 hours compound, then 600 μM tryptophanol 30 minutes, anti-phospho-eIF2alpha, read-out: IC50 GCN2 (cell assay). The method, then:
Cellular Assay for the Determination of Compound Activities
Human U2OS cells (2000 cells/well) are seeded into 384-well plates and incubated for 20 hours.
The next day, the cells are treated with the test compounds and incubated for 2 hours. Then, tryptophanol, at a final concentration of 600 μM, is added to the cells and those are incubated for 30 minutes.
The analysis of cellular GCN2 activities is done by immunocytochemistry. Briefly, cells are fixated on the well surfaces by formaldehyde and permeabilised with Triton X-100. The primary antibody (anti-phospho-eIF2alpha (Ser51, Cell Signalling Technology, #3398) is incubated on the treated cells for 20 hours, followed by a 60 minutes incubation of the secondary antibody (anti-rabbit-IgG-Alexa 488; Molecular Probes #11008). The analysis and quantification of phosphorylated GCN2 is done by scanning the plates in the Acumen Explorer system (TTPLabtech). The obtained data are normalised against the untreated control wells (DMSO only) and expressed as % effect values. The determination of IC50 values is done by using the Graph Pad Prism software.
Target sequence in this assay (Q9P2K8 whole entry): as the sequence (Q9P2K8 whole entry, species assumed) above

pIC50: −log10 of the molar value. A value given as a limit tells only on which side of the number the result lay.

Consider `CCOc1ccc(-n2nnc3cnc(Nc4cnn(CCCOC)c4)nc32)cc1` [Compound A49, [3-(4-ethoxy-phenyl)-3H-[1,2,3]triazolo[4,5-d]pyrimidin-5-yl]-[1-(3-methoxy-propyl)-1H-pyrazol-4-yl]-amine], for which the figures for the pIC50 against GCN2 [1] and on GCN2 [2] were over 6.52 and 4.30 to 5.52, respectively.

Take `c1nn(C2CCOCC2)cc1Nc1ncc2nnn(-c3ccc4cn[nH]c4c3)c2n1` [Compound A92, [3-(1H-indazol-6-yl)-3H-[1,2,3]triazolo[4,5-d]pyrimidin-5-yl]-[1-(tetrahydro-pyran-4-yl)-1H-pyrazol-4-yl]-amine]: the negative logarithm of the IC50 (pIC50) against GCN2 [1] and at GCN2 [2] was over 6.52 throughout.

As for `CN1CCC(n2cc(Nc3ncc4nnn(-c5cccc(F)c5)c4n3)cn2)CC1` [Compound A118, [3-(3-fluoro-phenyl)-3H-[1,2,3]triazolo[4,5-d]pyrimidin-5-yl]-[1-(1-methyl-piperidin-4-yl)-1H-pyrazol-4-yl]-amine], the negative-log IC50 (pIC50) against GCN2 [1] is over 6.52; at GCN2 [2], 5.52 to 6.52.

Turning to `NC(=O)c1ccc(-n2nnc3cnc(Nc4cnn(C5CCOCC5)c4)nc32)cc1` [Compound A80, 4-{5-[1-(tetrahydro-pyran-4-yl)-1H-pyrazol-4-ylamino]-[1,2,3]triazolo[4,5-d]pyrimidin-3-yl}-benzamide], the negative-log IC50 (pIC50) on GCN2 [1] was 5.52 to 6.52; on GCN2 [2], over 6.52.

With `CCn1cc(Nc2ncc3nnn(-c4ccc(C(=O)OC)cc4)c3n2)cn1` [Compound A117, 4-[5-(1-ethyl-1H-pyrazol-4-ylamino)-[1,2,3]triazolo[4,5-d]pyrimidin-3-yl]-benzoic acid methyl ester], the negative logarithm of the IC50 (pIC50) was over 6.52 at GCN2 [1] and 5.52 to 6.52 at GCN2 [2].

Turning to `COc1ccc(-n2nnc3cnc(Nc4cnn(C5CCN(C)CC5)c4)nc32)nc1` [Compound A77, [3-(5-methoxy-pyridin-2-yl)-3H-[1,2,3]triazolo[4,5-d]pyrimidin-5-yl]-[1-(1-methyl-piperidin-4-yl)-1H-pyrazol-4-yl]-amine], the pIC50 at GCN2 [1] is over 6.52; on GCN2 [2] it was 5.52 to 6.52.

For `COCCOc1ccc(-n2nnc3cnc(Nc4cnn([C@H]5CC[C@H](O)CC5)c4)nc32)cc1` [Compound A108, 4-(4-{3-[4-(2-methoxy-ethoxy)-phenyl]-3H-[1,2,3]triazolo[4,5-d]pyrimidin-5-ylamino}-pyrazol-1-yl)-cyclohexanol], the pIC50 at GCN2 [1] is over 6.52; at GCN2 [2] it was 4.30 to 5.52.

Turning to `OC[C@@H]1C[C@H]1Cn1cc(Nc2ncc3nnn(-c4ccc(Cl)c(F)c4)c3n2)cn1` (relative stereo) [Compound A98, ((trans)-2-{4-[3-(4-chloro-3-fluoro-phenyl)-3H-[1,2,3]triazolo[4,5-d]pyrimidin-5-ylamino]-pyrazol-1-ylmethyl}-cyclopropyl)-methanol], the pIC50 against GCN2 [1] was over 6.52; on GCN2 [2], 5.52 to 6.52.

Consider `CCn1cc(Nc2ncc3nnn(-c4ccc5[nH]ncc5c4)c3n2)cn1` [Compound A91, (1-ethyl-1H-pyrazol-4-yl)-[3-(1H-indazol-5-yl)-3H-[1,2,3]triazolo[4,5-d]pyrimidin-5-yl]-amine], for which the pIC50 is over 6.52 on GCN2 [1] and 5.52 to 6.52 at GCN2 [2].

Regarding `CCOc1ccc(-n2nnc3cnc(Nc4cnn(C5CCN(C)CC5)c4)nc32)cc1` [Compound A28, 3-(4-ethoxyphenyl)-N-[1-(1-methyl-4-piperidyl)pyrazol-4-yl]triazolo[4,5-d]pyrimidin-5-amine], the negative-log IC50 (pIC50) was over 6.52 against GCN2 [1] and 5.52 to 6.52 at GCN2 [2].

With `COc1ccc(-n2nnc3cnc(Nc4cnn(C5CCN(C)CC5)c4)nc32)cc1` [Compound A8, [3-(4-methoxy-phenyl)-3H-[1,2,3]triazolo[4,5-d]pyrimidin-5-yl]-[1-(1-methyl-piperidin-4-yl)-1H-pyrazol-4-yl]-amine], the pIC50 on GCN2 [1] is over 6.52; on GCN2 [2] it was 5.52 to 6.52.

For `CN1CCC(n2cc(Nc3ncc4nnn(-c5ccc(Cl)c(F)c5)c4n3)cn2)CC1` [Compound A44, [3-(4-chloro-3-fluoro-phenyl)-3H-[1,2,3]triazolo[4,5-d]pyrimidin-5-yl]-[1-(1-methyl-piperidin-4-yl)-1H-pyrazol-4-yl]-amine], the pIC50 is over 6.52 on GCN2 [1] and 5.52 to 6.52 at GCN2 [2].

In the case of `COCCOc1ccc(-n2nnc3cnc(Nc4cnn(CCn5cccn5)c4)nc32)cc1` [Compound A65, {3-[4-(2-methoxy-ethoxy)-phenyl]-3H-[1,2,3]trtazolo[4,5-d]pyrimidin-5-yl}-[1-(2-pyrazol-1-yl-ethyl)-1H-pyrazol-4-yl]-amine], the pIC50 was over 6.52 against GCN2 [1] and 5.52 to 6.52 at GCN2 [2].

Take `CCn1cc(-n2nnc3cnc(Nc4cnn(C5CCOCC5)c4)nc32)cn1` [Compound A83, [3-(1-ethyl-1H-pyrazol-4-yl)-3H-[1,2,3]triazolo[4.5-d]pyrimidin-5-yl]-[1-(tetrahydro-pyran-4-yl)-1H-pyrazol-4-yl]-amine]: the values for the pIC50 at GCN2 [1] and at GCN2 [2] were over 6.52 and 4.30 to 5.52, respectively.

Take `c1ccc(-n2nnc3cnc(Nc4cn[nH]c4)nc32)cc1` [Compound A4, (3-phenyl-3H-[1,2,3]triazolo[4,5-d]pyrimidin-5-yl)-(1H-pyrazol-4-yl)-amine]: the pIC50 against GCN2 [1] was over 6.52; on GCN2 [2], 4.30 to 5.52.

Turning to `CN1CCC(n2cc(Nc3ncc4nnn(-c5ccc(F)c(Cl)c5)c4n3)cn2)CC1` [Compound A111, [3-(3-chloro-4-fluoro-phenyl)-3H-[1,2,3]triazolo[4,5-d]pyrimidin-5-yl]-[1-(1-methyl-piperidin-4-yl)-1H-pyrazol-4-yl]-amine], the pIC50 at GCN2 [1] was 5.52 to 6.52; on GCN2 [2], 4.30 to 5.52.

`CCCCOc1ccc(-n2nnc3cnc(Nc4cnn(CC)c4)nc32)cn1` [Compound A57, [3-(6-butoxy-pyridin-3-yl)-3H-[1,2,3]triazolo[4,5-d]-pyrimidin-5-yl]-(1-ethyl-1H-pyrazol-4-yl)-amine] gave a pIC50 on GCN2 [1] of 5.52 to 6.52.

In turn, `Fc1cccc(-n2nnc3cnc(Nc4cnn(CCCC5CCNCC5)c4)nc32)c1` [Compound A129, [3-(3-fluoro-phenyl)-3H-[1,2,3]triazolo[4,5-d]pyrimidin-5-yl]-[1-(3-piperidin-4-yl-propyl)-1H-pyrazol-4-yl]-amine] gave a negative logarithm of the IC50 (pIC50) at GCN2 [1] of over 6.52.

Consider `CCCCOc1ccc(-n2nnc3cnc(Nc4cnn(C5CCOCC5)c4)nc32)cn1` [Compound A47, [3-(6-butoxy-pyridin-3-yl)-3H-[1,2,3]triazolo[4,5-d]pyrimidin-5-yl]-[1-(tetrahydro-pyran-4-yl)-1H-pyrazol-4-yl]-amine], for which the negative logarithm of the IC50 (pIC50) against GCN2 [1] was 5.52 to 6.52.

On GCN2 [1], `O=C1CCCN1c1ccc(-n2nnc3cnc(Nc4cnn(C5CCOCC5)c4)nc32)cc1` [Compound A43, 1-[4-[5-[(1-tetrahydropyran-4-ylpyrazol-4-yl)amino]triazolo[4,5-d]pyrimidin-3-yl]phenyl]pyrrolidin-2-one] gave a negative-log IC50 (pIC50) of over 6.52.

Molecule `CC(C)(N)c1ccc(-n2nnc3cnc(Nc4cnn(C5CCOCC5)c4)nc32)cc1` [Compound A152, {3-[4-(1-amino-1-methyl-ethyl)-phenyl]-3H-[1,2,3]triazolo[4,5-d]pyrimidin-5-yl}-[1-(tetrahydro-pyran-4-yl)-1H-pyrazol-4-yl]-amine] showed a pIC50 against GCN2 [1] of over 6.52.

The molecule `Fc1ccc(-n2nnc3cnc(Nc4cnn(C5CCOCC5)c4)nc32)cc1F` [Compound A116, [3-(3,4-difluoro-phenyl)-3H-[1,2,3]triazolo[4,5-d]pyrimidin-5-yl]-[1-(tetrahydro-pyran-4-yl)-1H-pyrazol-4-yl]-amine] showed a negative logarithm of the IC50 (pIC50) against GCN2 [1] of 5.52 to 6.52.

In turn, `c1cnc2cc(-n3nnc4cnc(Nc5cnn(C6CCOCC6)c5)nc43)ccc2c1` [Compound A86, (3-quinolin-7-yl-3H-[1,2,3]triazolo[4,5-d]pyrimidin-5-yl)-[1-(tetrahydro-pyran-4-yl)-1H-pyrazol-4-yl]-amine] gave a pIC50 at GCN2 [1] of over 6.52.

Take `CCn1cc(Nc2ncc3nnn(-c4ccc(F)cc4)c3n2)cn1` [Compound A63, (1-ethyl-1H-pyrazol-4-yl)-[3-(4-fluoro-phenyl)-3H-[1,2,3]triazolo[4,5-d]pyrimidin-5-yl]-amine]: at GCN2 [1], the negative-log IC50 (pIC50) was over 6.52.

On GCN2 [1], `CCOc1ccc(-n2nnc3cnc(Nc4cnn(CCC(C)C)c4)nc32)cc1` [Compound A88, [3-(4-ethoxy-phenyl)-3H-[1,2,3]triazolo[4,5-d]pyrimidin-5-yl]-[1-(3-methyl-butyl)-1H-pyrazol-4-yl]-amine] showed a pIC50 of over 6.52.

The values above are taken from patent US9409914B2, “Triazolo[4,5-d]pyrimidine derivatives” (Merck Patent GmbH, priority 2012, dated 2016).
